Results on 3 compounds are retold here after PMC8264504, “Identification of Koumine as a Translocator Protein 18 kDa Positive Allosteric Modulator for the Treatment of Inflammatory and Neuropathic Pain” (Frontiers in Pharmacology, 2021).

Molecules are shown by their SMILES. Where two headings read alike, the source gives them in different places.

The target of series [1] is T1, mouse TSPO recombinant protein (TSPO proteoliposomes) (Mus musculus, UniProt P50637).
T1 construct: His tag; made in house; host or cells: Escherichia coli BL21(DE3) pLysS, pET15b vector
The series is described as follows: SPR single-cycle kinetics on TSPO proteoliposomes. In kind it is binding. How it is done:
(§1) Cells of the BL21(DE3) pLysS Escherichia coli strain were transformed with the pET15b vector, from which the expression of mouse TSPO recombinant protein was induced by 1 mM isopropyl-1-thiol-β-D-galactopyranoside as previously described ([Robert and Lacapère, 2010]; [Senicourt et al., 2017]). Cells were harvested and resuspended in lysis buffer (150 mM NaCl and 50 mM HEPES-Na, pH 7.8) with the addition of 1 mg/ml lysozyme and sonicated thoroughly. The lysate was centrifuged at 15,000 g at 4°C for 20 min to pellet the insoluble inclusion bodies. The final pellet of inclusion bodies was solubilized in binding buffer (150 mM NaCl, 50 mM HEPES-Na, 1% SDS (wt/vol), pH 7.8) and was purified by the Ni-NTA gravity flow column.
Proteoliposomes composed of DMPC/DMPE (9:1) and TSPO in a 5:1 (wt/wt) ratio were prepared using a previously described method ([Ostuni et al., 2010]). Liposomes composed of DMPC/DMPE (9:1) were prepared as published previously ([Hatty et al., 2014]). A few milligrams of DMPC and DMPE were weighed into a round-bottom glass flask, and chloroform and methanol were added to dissolve them. A thin lipid film was prepared by a rotary evaporator and dried under vacuum for at least 3 h to remove all traces of chloroform and methanol. The dry lipid film was resuspended in PBS buffer (10 mM phosphate buffer, 2.7 mM KCl, 137 mM NaCl) to a concentration of 1 mg/ml, hydrated for 2 h at 45–55°C, and finally sonicated to produce small unilamellar vesicles. The suspension of small unilamellar vesicles was then kept at 45°C for use on the same day. The sizes of proteoliposomes and liposomes were determined by dynamic light scattering using Nicomp 380 Z3000 instrument (Parficle Sizing Systems, America).
SPR analyses were performed at 25°C with a Biacore T200 instrument. For proteoliposomes and liposomes (reference), they were immobilized on a series S L1 sensor chips. It is possible that the repeated regeneration steps in the multicycle kinetics process impairs the activity of TSPO proteoliposomes, thus we were unable to use multicycle kinetics to effectively determine the affinity of TSPO and its ligands. Therefore, the single cycle kinetics, which assumes to be as robust as the classical multicycle kinetics for measuring affinity, was used. Kinetic rate constants for the various analytes were determined using single cycle protocols where five serial 2-fold dilutions of the analytes were injected for 180 s without intervening regeneration, followed by a 300 s dissociation phase after the last injection. Interactions were measured at 30 μl/min. PBS, with addition of 1% DMSO (pH 7.4), was used as running buffer. […] For mouse TSPO in a lipid-free environment, affinity was measured according to established methods with minor modifications ([Zhang et al., 2015]). […]

For series [2], the target named is T2, mouse TSPO recombinant protein (Mus musculus, UniProt P50637).
T2 construct: made in house; host or cells: Escherichia coli BL21(DE3) pLysS, pET15b vector
Nature of the series: SPR multicycle kinetics, mouse TSPO in a lipid-free environment. In kind it is binding. As to conditions: CM5 chip, anti-His capture, read-out: affinity to mouse TSPO. The protocol:
as §1
SPR analyses were performed at 25°C with a Biacore T200 instrument. For proteoliposomes and liposomes (reference), they were immobilized on a series S L1 sensor chips. It is possible that the repeated regeneration steps in the multicycle kinetics process impairs the activity of TSPO proteoliposomes, thus we were unable to use multicycle kinetics to effectively determine the affinity of TSPO and its ligands. Therefore, the single cycle kinetics, which assumes to be as robust as the classical multicycle kinetics for measuring affinity, was used. Kinetic rate constants for the various analytes were determined using single cycle protocols where five serial 2-fold dilutions of the analytes were injected for 180 s without intervening regeneration, followed by a 300 s dissociation phase after the last injection. Interactions were measured at 30 μl/min. PBS, with addition of 1% DMSO (pH 7.4), was used as running buffer. Three consecutive 1 min injections with 10 μl/min of glycine HCl 3.0 at the end of each single-cycle kinetics regenerated the chip. For mouse TSPO in a lipid-free environment, affinity was measured according to established methods with minor modifications ([Zhang et al., 2015]). Briefly, HBS-EP buffer was used as the running buffer. […]

Series [3] has as its system T98G human glioblastoma cells. Nature of the series: Cell proliferation assay (BrdU ELISA). In kind it is cell-based. The settings on record: 48 h. The protocol:
T98G cells were plated at 1 × 10^4 cells/well in 96-well plates. […] After 48 h of drug exposure, proliferation was indexed using a BrdU ELISA Kit (Roche Molecular Diagnostics) according to the manufacturer’s protocol, and absorption was measured at 370 nm (reference wavelength 492 nm).

In series [4] the test system is T98G human glioblastoma cells. Nature of the series: Cell viability assay (CellTiter Blue). As to conditions: same dosing regimen as proliferation, 48 h. In kind it is cell-based. The protocol: T98G cells were plated and treated as in the proliferation assays. After 48 h of drug exposure, CellTiter Blue Reagent (Promega) was added to the cells and incubated for 4 h in 5% CO2 at 37°C. Absorption was measured at 570 nm using 600 nm as a reference wavelength.
In general terms: Resazurin is reduced to fluorescent resorufin, in cell work by metabolically active cells.

A further series deals with rat C6 glioma cells. The series is described as follows: Pregnenolone production. It is filed as cell-based. The settings on record: 2 h.
Series [5] concerns postoperative pain model of rats. Details: method as in Xiong et al., 2017. The settings on record: ref Xiong et al., 2017, cited from earlier work.
Series [6] addresses T3, TSPO from rat cerebral cortex (Rattus norvegicus, UniProt P16257).
T3 construct: male SD rats (240 ± 10 g) were killed by decapitation, and the cerebral cortices were dissected; from tissue; host or cells: rat (SD) cerebral cortex, crude mitochondrial/membrane pellet
The series is described as follows: 3H-PK11195 saturation binding. The settings on record: 0.125–32 nM, 4°C, 2 h.
Procedure: After incubating at 4°C for 2 h, the reaction was terminated by the addition of ice-cold 50 mM Tris HCl buffer (pH 7.4) followed by vacuum filtration through Filtermat A glass microfiber filters (pretreated with 0.2% polyethylenimine) using a Brandel cell harvester. The filters were washed rapidly, and radioactivity was determined by liquid scintillation spectrometry.

Series [7] has as its target T3, TSPO from rat cerebral cortex. The series is described as follows: 3H-PK11195 dissociation kinetics. As to conditions: vehicle; dissociation induced by 10 μM PK11195, 4°C. It is filed as binding. The protocol:
Briefly, male SD rats (240 ± 10 g) were killed by decapitation, and the cerebral cortices were dissected. The tissues were homogenized in 10 volumes (ml/g) of 50 mM Tris HCl buffer containing 0.32 M sucrose (pH 7.4). The homogenates were centrifuged at 1,000 g for 10 min at 4°C. The resulting pellets were discarded, and the supernatants were centrifuged at 9,000 g for 15 min. The pellets were resuspended in 10 volumes of Tris HCl buffer containing 0.32 M sucrose (pH 7.4) and centrifuged at 13,000 g for 30 min, then resuspended in 10 volumes of Tris HCl buffer and centrifuged again at 13,000 g for 30 min. The final pellets were suspended in Tris HCl buffer and used in the binding assays. Protein concentrations were measured using the BCA Protein Assay Kit (ThermoFisher Scientific) according to the manufacturer’s instructions.
Then, samples were filtered through Filtermat A glass microfiber filters (pretreated with 0.2% polyethylenimine) using a Brandel cell harvester, and the radioactivities were measured at the indicated time points.

The next series concerns the target TSPO. Set-up: method as in Awad and Gavish, 1987; Verma et al., 1987. The settings on record: radioligand binding experiment results from literatures, ref Awad and Gavish, 1987, Verma et al.; cited from earlier work.

T3 sequence (P16257 whole entry): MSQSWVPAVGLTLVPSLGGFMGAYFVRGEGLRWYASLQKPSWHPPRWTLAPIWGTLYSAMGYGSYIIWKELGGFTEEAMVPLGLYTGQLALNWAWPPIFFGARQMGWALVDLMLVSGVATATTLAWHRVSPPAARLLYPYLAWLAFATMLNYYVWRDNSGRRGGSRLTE

For `CCC(C)N(C)C(=O)c1cc2ccccc2c(-c2ccccc2Cl)n1` (stereo not drawn) [PK11195], the Kd turned out to be 0.00197 ± 2e-05 µM in [1] and 161 ± 6.1 µM in [2]. For the same compound, in series [3] (BrdU), the “EC20 concentration, inhibition of cell proliferation” value was around 75 µM. Further, the EC50 in series [3] (Homo sapiens, T98G, read-out: EC50, inhibition of cell proliferation) is 81 µM; in the series on rat C6 glioma cells (Rattus norvegicus, C6 glioma, read-out: EC50, pregnenolone production), 69 µM. The cell viability entry in series [4] is “not significantly affected”. The “EC20 concentration, pregnenolone production” value in the series with rat C6 glioma cells was around 27 µM. For the same compound, the “increase in pregnenolone production” value with rat C6 glioma cells (vs vehicle) is reported as “approximately 50%”. The analgesic effect entry in series [5] (7 μg PK11195 alone, intrathecal) was “can also produce a certain analgesic effect”; in series [5] (intrathecal injection of 0.7 μg PK11195), “had no analgesic effect”. In [5] (intrathecal 0.7 μg PK11195 with 200 μg koumine), the “effect on analgesic effect of intrathecal 200 μg koumine” value is recorded as “weakened the analgesic effect”.
The compound `CCC(C)N(C)C(=O)c1cc2ccccc2c(-c2ccccc2Cl)n1` (stereo not drawn) [^3H-PK11195, reference compound] had a Bmax in series [6] of 143.3 ± 5.4 fmol/mg protein. Besides, the “dissociation rate of 3H-PK11195” value in series [7] is 0.0419 ± 0.0016 min⁻¹.
Consider `C=CC1=C(C)c2cc3[nH]c(cc4nc(cc5[nH]c(cc1n2)c(C)c5CCC(=O)O)C(CCC(=O)O)=C4C)c(C)c3C=C` [protoporphyrin IX], for which the Kd in [1] (SPR single-cycle kinetics, TSPO proteoliposomes on L1 chip, 25°C, Langmuir 1:1 fit, read-out: KD) is 0.0126 ± 0.00039 µM; at TSPO, 0.0145 ± 0.0107 µM.
